These results are taken from patent US20080214399A1, “Enhanced amino acid formulations” (priority 2006, published 2008).

For the experiment, the system named is cotton cotyledons. Put plainly: Cotton cotyledon bioassay: reduction of CPPU-induced ethylene production. In kind it is in vivo, cotton (variety SG 105). The conditions noted are these: CPPU (200 μM) alone, reference = 1.00. The method, then: A cotton bioassay system has been used in the laboratory to study the effect of formulations on AVG performance. […] One spray application of CPPU (forchlorfenuron) is made to the bottom (abaxial) and AVG was subsequently applied to the top (adaxial) surface of the cotyledons. […] Water was used as the carrier. Further dilutions were prepared as needed for foliar applications. All the data was subject to an analysis of variance, and the mean separations were determined with Duncan's new multiple range test at α=0.05. The present invention may be illustrated by the following representative examples: […]

Turning to `O=C(Nc1ccccc1)Nc1ccnc(Cl)c1` [CPPU, forchlorfenuron], the “Reduction as compared to CPPU-treated” value amounted to 1.00.
